Non-standard residues stand in square brackets, D forms with d. Residues, ends and D or L forms follow the SMILES beside them. No end group written: not given here. Ala(4-thiazolyl) = N[C@@H](Cc1cscn1)C(=O)O; d2Nal = N[C@H](Cc1ccc2ccccc2c1)C(=O)O; dBta = N[C@H](Cc1csc2ccccc12)C(=O)O; Api = NC1(C(=O)O)CCNCC1; Inp = O=C(O)C1CCNCC1
Assays:
[1] = molecular target: T1, human recombinant GHS receptor (Homo sapiens, UniProt Q92847); assay: GHS-receptor binding assay, (125I)ghrelin displacement; conditions: 0.05 nM (125I)ghrelin, membranes of CHO-K1 cells expressing human recombinant GHS receptor, 60 min at 4° C.
T1 construct: The full length human GHS-R was subcloned into the mammalian expression vector pcDNA 3.1; expressed in transfected cells; membrane homogenates used
Description: Membranes for radioligand binding studies can be and were prepared by homogenization of the foregoing CHO-K1 cells expressing the human recombinant GHS receptor. The cells were homogenized in 20 ml of ice-cold 50 mM Tris-HCl using a Brinkman Polytron® (Westbury, N.Y.; setting 6, 15 sec). The homogenates were washed twice by centrifugation (39,000 g/10 min) and the final pellets were resuspended in 50 mM Tris-HCl containing 2.5 mM MgCl2 and 0.1% bovine serum albumin (BSA).

male Sprague Dawley rats [2] = assay: In vivo gastric emptying, subcutaneous administration, phenol red meal; design: species or system rat; conditions: fasted rats, injected subcutaneously, varying doses
Description: The animals were injected subcutaneously with either vehicle or varying doses of native ghrelin or selected ghrelin analogs. After approximately 15 minutes, 1.5 ml of a phenol red marked nutrient meal (0.5 mg/ml phenol red & 1.5% methyl cellulose in whole milk) was administered orally to the rats. […] The residual phenol red in the stomach was extracted and measured by spectrophotometric methods at a wavelength of 560 nm. […] (see Figures)

rats [3] = assay: In vivo study on intestinal transit, charcoal meal; design: species or system rat; conditions: fasted anesthetized rats, charcoal meal by esophageal gavage
Description: In the study, groups of eight rats were fasted for approximately 24 hours with free access to water. Anesthetized test subjects were administered native ghrelin, the selected analog and atropine as a control. The test subjects were administered a 2 ml charcoal meal by esophageal gavage approximately five minutes after the initial administration of ghrelin, the selected analog or atropine. After approximately an additional 25 minutes, the test subjects were sacrificed by cervical rupture and the small intestines were removed. The distance the charcoal traveled was measured from the pylorus.

male Sprague Dawley rats [4] = assay: In vivo gastric emptying, intravenous administration, phenol red meal; design: species or system rat; conditions: fasted anesthetized rats, administered intravenously
Description: Selected compounds of the invention can be and were tested to determine the effect of the compounds upon gastric emptying. […] Native ghrelin, the selected ghrelin analog and a metoclopramide control compound were administered intravenously to anesthetized test subjects. Approximately five minutes after the initial administration of native ghrelin, the selected ghrelin analog or the control compound, a 1.5 ml meal marked with phenol red (0.5 mg/ml phenol red and 1.5% methyl cellulose in whole milk) was administered to each test subject by esophageal gavage. After approximately an additional 20 minutes, the test subjects were sacrificed by cervical rupture and the stomachs removed and individually pulverized. The residual phenol red in the stomach of the test subjects was extracted and was measured spectrophometrically at a wavelength of 560 nm.

male Sprague Dawley rats [5] = assay: Effect on POI in rat (laparotomy-induced gastric ileus), gastric emptying; format: in vivo; conditions: 3 centimeter laparotomy, administered subcutaneously
Ferrets = conditions: ferrets exposed to cisplatin, intracerebroventricular administration; cited from earlier work
rats [6] = conditions: cited from earlier work
mice = conditions: cited from earlier work
septic mice = conditions: cited from earlier work
rats [7] = conditions: post-operative ileus model; cited from earlier work
laparectomized dogs = conditions: cited from earlier work
[8] = system: patients with diabetic gastroparesis; conditions: cited from earlier work

T1 sequence (Q92847 whole entry): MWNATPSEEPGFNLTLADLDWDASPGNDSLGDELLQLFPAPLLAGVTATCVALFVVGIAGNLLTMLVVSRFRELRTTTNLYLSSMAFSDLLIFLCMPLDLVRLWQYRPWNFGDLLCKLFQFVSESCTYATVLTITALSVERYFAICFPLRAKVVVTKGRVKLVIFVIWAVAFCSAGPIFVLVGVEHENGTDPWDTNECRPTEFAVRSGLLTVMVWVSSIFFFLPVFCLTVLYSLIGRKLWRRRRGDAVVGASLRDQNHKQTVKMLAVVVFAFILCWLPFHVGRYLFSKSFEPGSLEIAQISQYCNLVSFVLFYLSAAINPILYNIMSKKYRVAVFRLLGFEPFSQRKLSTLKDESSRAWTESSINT

Row | Compound | Ki [1] [nM] | effect on gastric emptying (residual phenol red in stomach) (male Sprague Dawley rats [2]) | effect on intestinal transit (distance the charcoal traveled from the pylorus) (rats [3]) | effect on gastric emptying (residual phenol red in stomach) (male Sprague Dawley rats [4]) | effect on gastric emptying under post-operative ileus conditions (male Sprague Dawley rats [5]) | effect on gastric emptying (rats [6]) | effect on gastric emptying (mice) | effect on gastric emptying (septic mice) | effect on transit in the small intestine (septic mice) | other results
1 | NCCCC[C@H](NC(=O)[C@H](Cc1ccccc1)NC(=O)[C@@H](Cc1c[nH]c2ccccc12)NC(=O)[C@@H](Cc1ccc2ccccc2c1)NC(=O)C1CCNCC1)C(N)=O [Example #2, Inp-D-2-Nal-D-Trp-Phe-Lys-NH2] (HELM PEPTIDE1{[O=C(C1CCNCC1)[*:2]].[O=C([C@@H](Cc1ccc2ccccc2c1)N[*:1])[*:2]].[dW].F.K.[am]}$$$$V2.0) | 0.3 |  |  |  |  |  |  |  |  | 
2 | NC(=O)C1(NC(=O)[C@H](Cc2ccccc2)NC(=O)[C@@H](Cc2c[nH]c3ccccc23)NC(=O)[C@@H](Cc2csc3ccccc23)NC(=O)C2CCNCC2)CCNCC1 [Example #19, H-Inp-D-Bal-D-Trp-Phe-Apc-NH2] (H-[Inp][dBta][dW]F[Api]-NH2) |  | accelerated gastric emptying | accelerated gastric intestinal transit | accelerated gastric emptying | significantly accelerated gastric emptying |  |  |  |  | 
3 | NCCCC[C@H](NC(=O)[C@H](Cc1cscn1)NC(=O)[C@@H](Cc1c[nH]c2ccccc12)NC(=O)[C@@H](Cc1ccc2ccccc2c1)NC(=O)C1CCNCC1)C(N)=O [Example #37, H-Inp-D-2-Nal-D-Trp-Taz-Lys-NH2] (H-[Inp][d2Nal][dW][Ala(4-thiazolyl)]K-NH2) | 0.8 |  |  |  |  |  |  |  |  | 
4 | H-Gly-Ser-Ser-Phe-Leu-Ser-Pro-Glu-His-Gln-Arg-Val-Gln-Gln-Arg-Lys-Glu-Ser-Lys-Lys-Pro-Pro-Ala-Lys-Leu-Gln-Pro-Arg-NH2 (H-GSSFLSPEHQRVQQRKESKKPPAKLQPR-NH2) [ghrelin, orexigenic hormone, native ligand for the GHS receptor] |  | accelerated gastric emptying | accelerated gastric intestinal transit | accelerated gastric emptying | significantly accelerated gastric emptying | accelerate gastric emptying | accelerate gastric emptying | accelerated gastric emptying | little effect upon increasing transit in the small intestine | occurrences of retching and vomiting (Ferrets): significantly reduced occurrences of retching and vomiting; effect on delay of gastric emptying (rats [7]): reverse the delay of gastric emptying; effect on POI (laparectomized dogs): improve POI; effect on gastric emptying [8]: increase gastric emptying
5 | His-D-Trp-Ala-Trp-D-Phe-Lys-amide (H[dW]AW[dF]K-NH2) [GHRP-6] |  |  |  |  |  | accelerate gastric emptying | accelerate gastric emptying | accelerated gastric emptying | little effect upon increasing transit in the small intestine | 
